Measurements published in article PMC3830930 (Clinical pharmacology and therapeutics, 2011).
Read-outs that look alike come from different tables or passages of the source. Marks after values point to notes of the source that are not given here.

Experiments:
CYP3A4/5 [1] = test: clinical; settings: human, in vivo
CYP3A4/5 [2] = settings: for AUC1’-OH/AUC4-OH ratio: range over the three CYP3A5 genotype groups
[3] = target: recombinant CYP3A4 (rCYP3A4) (Homo sapiens, UniProt P08684)
[4] = test system: UDP-glucuronosyltransferases (UGTs) in pooled HLMs; test: Glucuronidation of hydroxymidazolams in HLMs; assay type: in vitro ADME, human
[5] = cited from earlier work
plasma protein = settings: cited from earlier work

Chain of recombinant CYP3A4 (rCYP3A4) (P08684 2-503 limits assumed): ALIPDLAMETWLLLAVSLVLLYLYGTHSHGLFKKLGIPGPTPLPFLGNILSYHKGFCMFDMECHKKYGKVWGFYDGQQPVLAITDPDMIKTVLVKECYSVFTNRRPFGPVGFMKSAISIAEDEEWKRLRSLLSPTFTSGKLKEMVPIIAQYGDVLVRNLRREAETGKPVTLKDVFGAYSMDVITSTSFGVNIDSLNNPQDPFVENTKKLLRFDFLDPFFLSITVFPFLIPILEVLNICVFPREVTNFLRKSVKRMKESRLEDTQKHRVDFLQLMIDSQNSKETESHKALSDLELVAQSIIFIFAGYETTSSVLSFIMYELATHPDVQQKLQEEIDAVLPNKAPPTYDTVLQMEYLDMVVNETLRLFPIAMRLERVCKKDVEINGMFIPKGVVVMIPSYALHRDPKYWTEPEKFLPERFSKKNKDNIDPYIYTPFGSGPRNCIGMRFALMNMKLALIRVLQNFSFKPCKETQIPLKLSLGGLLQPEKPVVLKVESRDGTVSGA

Cc1ncc2n1-c1ccc(Cl)cc1C(c1ccccc1F)=NC2 [midazolam, reference compound]
AUC (CYP3A4/5 [1]; AUCMDZ): 0.227 µM·h | AUC (CYP3A4/5 [1]; iv, 1 mg, AUCMDZ): 0.16 ± 0.035 µM·h | percent of extrapolated AUC (CYP3A4/5 [2]; human, in vivo): 13.0 ± 9.5%

Cc1ncc2n1-c1ccc(Cl)cc1C(c1ccccc1F)=NC2O (centres unmarked) [4-hydroxymidazolam]
AUC (CYP3A4/5 [1]; iv, 1 mg, AUC4-OH): 0.0022 ± 0.0006 µM·h | percent of extrapolated AUC (CYP3A4/5 [2]; human, in vivo): 19.0 ± 8.3%

OCc1ncc2n1-c1ccc(Cl)cc1C(c1ccccc1F)=NC2 [1’-hydroxymidazolam]
Ki of 1’-OH-MDZ formation (substrate inhibition) [3]: 1480 ± 615 ^a µM | AUC1’-OH/AUC4-OH ratio (CYP3A4/5 [2]; control state): 6.3–9.6 | percent of extrapolated AUC (CYP3A4/5 [2]; extrapolation to infinity, mean ± S.D.): 18.4 ± 10.6% | AUC1’-OH/AUC4-OH ratio (CYP3A4/5 [2]; with fluconazole): 2.9–4.9

OC(Cn1cncn1)(Cn1cncn1)c1ccc(F)cc1F [fluconazole]
effect on the glucuronidation of either hydroxymidazolam metabolite ([4]; pooled HLMs, substrate 1 µM, even at 300 µM fluconazole): no effect | IC50 for 1’-OH-MDZ lower than that for 4-OH-MDZ ([3]; human, pH 7.4): 50% | elimination t1/2 [5]: ~ 32 hrs | plasma protein binding (plasma protein): 11–12%

hecogenin
effect on glucuronide formation from 1’-OH-MDZ or 4-OH-MDZ [4]: decreased glucuronide formation significantly
